Consider nine molecules from patent publication US20040072865A1, “Aryl piperidine derivatives as inducers of ldl-receptor expression” (priority 2003, published 2004).

One data set has as its system LDL-r promoter. Put plainly: LDL-r promoter luciferase reporter gene assay in stably transfected HepG2 cells. Type of data set: cell-based, human. As to conditions: read-out: In vitro (IC50). In general terms: In a reporter assay the amount or activity of a reporter protein is the signal.
The next data set relates to fat-fed hamsters. The data set can be described thus: Oral administration to fat-fed hamsters, reduction in VLDL/LDL cholesterol and TG plasmatic levels. The note with it: for ED50: Mesocricetus auratus, 72 h, fat-fed hamsters, oral, once a day for 3 days, reductions in VLDL/LDL cholesterol and TG plasmatic levels, read-out: In vivo (ED50). Type of data set: in vivo, hamster. Here is the method: The in vivo profile of the compounds is evaluated by oral administration of the compounds of the invention to fat-fed hamsters. Measurements of VLDL/LDL cholesterol and triglycerides upon treatment allow to determine the activity.
Compounds were prepared for oral administration by milling with 0.5% hydroxypropylmethylcellulose and 5% Tween 80. Hamsters were fed for 2 weeks with a diet containing 0.2% of cholesterol and 10% of coconut oil. Then compounds were administrated once a day for 3 days, from 20 to 0.2 mg/kg. Plasma lipid levels including total cholesterol, VLDL/LDL cholesterol, VLDL/LDL triglycerides and HDL-cholesterol were determinated after ultracentrifugation (density 1.063 g/ml to separate VLDL/LDL fraction and HDL fraction) using the Biomerieux erizymatic kit. Reductions in VLDL/LDL cholesterol and TG plasmatic levels were calculated taking solvant treated animals as control and ED50 of each compound was determined.

Molecules are shown by their SMILES. Like-named read-outs stand apart in the source and are kept apart here.

Usually melting point stands for the temperature, or range, at which the solid turns liquid. `CCOP(=O)(OCC)Oc1cc(CC)ccc1C1CCN(CCCCNC(=O)c2ccc(NC(=O)c3ccc(Cl)cc3)cc2)CC1` gave a melting point of 158 to 160 °C.
In turn, `CCc1ccc(C2CCN(CCCCNC(=O)c3ccc(-c4ccc(C#N)cc4)cc3)CC2)c(O)c1` [Example 6, 4′-Cyano-biphenyl-4-carboxylic Acid {4-[4-(2-hydroxy-4-ethyl-phenyl)-piperidin-1-yl]-butyl}-amide] returned a melting point of 252 °C.
For `Cc1ccc(C2CCN(CCCCNC(=O)c3ccc(-c4ccc(C#N)cc4)cc3)CC2)c(OP(=O)(O)O)c1`, the melting point stood at 70 °C.
As a reminder, the IC50 is the midpoint of a concentration-inhibition curve. For orientation: ED50 means the dose that gives a 50% effect, or the effect in half of the subjects. As to `CCOP(=O)(OCC)Oc1cc(C)ccc1C1CCN(CCCCNC(=O)c2ccc(NC(=O)c3ccc(Cl)cc3)cc2)CC1` [Example 3, Phosphoric Acid 2-(1-{4-[4-(4-chloro-benzoylamino)-benzoylamino]-butyl}-piperidin-4-yl)-5-methyl-phenyl Ester Diethyl Ester], the melting point came to 230 °C. Besides, the half-inhibitory concentration (IC50) in the data set with LDL-r promoter (Homo sapiens, HepG2 cells with LDL-r promoter-luciferase construct, 24 hours incubation, induction of luciferase activity) is 0.03 µM. Also, the ED50 in the data set on fat-fed hamsters turned out to be 5 mg/kg.
Molecule `CCc1ccc(C2CCN(CCCCNC(=O)c3ccc(NC(=O)c4ccc(Cl)cc4)cc3)CC2)c(OC(C)=O)c1` [Example 5, Acetic Acid 2-(1-{4-[4-(4-chloro-benzoylamino)-benzoylamino]-butyl}-piperidin-4-yl)-5-ethyl-phenyl Ester] showed a melting point of 192 to 194 °C.
The same measure, in the same setting: the same measure for `Cc1ccc(C2CCN(CCCCNC(=O)c3ccc(-c4ccc(C#N)cc4)cc3)CC2)c(O)c1` [Example 20, 4′-Cyano-biphenyl-4-carboxylic Acid {4-[4-(2-hydroxy-4-methyl-phenyl)-piperidin-1-yl]-butyl}-amide]: 184 °C.
Take `CC(=O)Oc1cc(C)ccc1C1CCN(CCCCNC(=O)c2ccc(-c3ccc(C#N)cc3)cc2)CC1` [Example 21, Acetic Acid 2-(1-{4-[(4′-cyano-biphenyl-4-carbonyl)-amino]-butyl}-piperidin-4-yl)-5-methyl-phenyl Ester]: the melting point lay in the range of 128 to 130 °C.
As for `Cc1ccc(C2CCN(CCCCNC(=O)c3ccc(NC(=O)c4ccc(Cl)cc4)cc3)CC2)c(O)c1.Cl` [Example 1, 4-(4-chloro-benzoylamino)-N-{4-[4-(5-methyl-2-piperidinyl-phenol)]-butyl}-benzamide Hydrochloride], the concentration for half-maximal inhibition (IC50) in the data set on LDL-r promoter was 0.03 µM. In addition, in the data set on fat-fed hamsters (hamster, in vivo, po), the “In vivo (ED50)” value lay within 10 to 15 mg/kg.
In the case of `CC(=O)Oc1cc(C)ccc1C1CCN(CCCCNC(=O)c2ccc(NC(=O)c3ccc(Cl)cc3)cc2)CC1` [Example 2, Acetic Acid 2-(1-{4-[4-(4-chloro-benzoylamino)-benzoylamino]-butyl}-piperidin-4-yl)-5-methyl-phenyl Ester], the melting point was determined as 210 °C. Further, the ED50 in the data set on fat-fed hamsters was determined as 5 mg/kg.
